From paper PMC8869731, “KasQ an Epimerase Primes the Biosynthesis of Aminoglycoside Antibiotic Kasugamycin and KasF/H Acetyltransferases Inactivate Its Activity” (Biomedicines, 2022)
Entries after “also recorded” stand apart in the source; their conditions may differ.

What was measured:
[1] = tested on: E. coli BL21 (DE3) cells with/without the kasH or kasF gene; test: Disc diffusion assay (resistance assay); type: cell-based; details: E. coli BL21 with/without the kasH or kasF gene, all conditions
Protocol: KSM susceptibility and production were confirmed by disc diffusion assay. An E. coli culture was grown at 37 °C overnight and spread on an LB agar plate (pH 7.0). About 5 µL of extracted samples from Streptomyces lividans TK64 (from days 2–5) were loaded onto the paper disc. The disc was placed onto the surface of an LB agar plate and incubated at 37 °C overnight to visualize the zone of inhibition (ZOI).
For the KSM resistant assay, BL21 cells with/without the kasH or kasF gene were individually expressed and seeded on LB agar plates (pH 7.0). About 5 µL of different aminoglycoside antibiotics (amikacin, gentamicin, sisomicin, streptothricin-F, or tobramycin) were loaded onto each paper disc and placed on the surface of the LB plates. The plates were incubated 37 °C overnight to visualize the appearance of the zone of inhibition (ZOI). Note: this is a standard protocol for evaluating the effectiveness of common antibiotics, including aminoglycosides; there is no apparent impact concerning the structural integrity or biological deterioration of the selected aminoglycosides at pH 7.0 during the examining course.

KasF = test: HPLC acetylation assay with KasF and AcCoA; type: biochemical, Streptomyces kasugaensis; details: 1 mM substrate, 0.5 mM AcCoA, 37 °C, 12 h
KasQ = KasQ (Streptomyces kasugaensis, UniProt A0A0K1H2R6); test: Isothermal titration calorimetry (ITC) of KasQ wild type versus substrates; type: binding; details: ITC, KasQ wild type;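 further: titration of 1 mM substrate into 0.1 mM KasQ, 18 injections spaced 120 s, data fitted to a single-site binding model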
Sequence of KasQ (A0A0K1H2R6 entry or part of it): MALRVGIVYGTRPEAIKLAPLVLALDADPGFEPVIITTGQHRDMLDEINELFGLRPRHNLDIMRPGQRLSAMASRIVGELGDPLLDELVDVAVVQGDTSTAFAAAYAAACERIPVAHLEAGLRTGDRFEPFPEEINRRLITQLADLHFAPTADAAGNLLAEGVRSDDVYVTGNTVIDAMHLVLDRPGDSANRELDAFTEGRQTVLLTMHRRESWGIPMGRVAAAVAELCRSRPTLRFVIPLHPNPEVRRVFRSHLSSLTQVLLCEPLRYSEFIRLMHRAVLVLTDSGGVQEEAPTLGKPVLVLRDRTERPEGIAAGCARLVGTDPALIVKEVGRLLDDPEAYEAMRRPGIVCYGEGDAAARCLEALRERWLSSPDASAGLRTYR
Protocol: ITC analyses were carried out at 25 °C using an ITC200 microcalorimeter (MicroCal Inc., Northampton, MA, USA). […] The titration experiment contains 18 injections (2 μL for a duration of 4 s) and each injection was separated by 120 s. The distilled water was filled in the reference cell throughout all titrations. The cell stirring speed was 1000 rpm. The collected raw data were processed in Origin 7.0 (provided by MicroCal) by a non-linear least square method to a single-site binding model.

SMILES | zone of inhibition (ZOI) [1] | other results
NC[C@H]1O[C@H](O[C@H]2[C@H](O)[C@@H](O[C@H]3O[C@H](CO)[C@@H](O)[C@H](N)[C@H]3O)[C@H](N)C[C@@H]2N)[C@H](N)[C@@H](O)[C@@H]1O [kanamycin B] | appearance of ZOI in all conditions | 
CN[C@@H]1[C@@H](O)[C@@H](O[C@@H]2[C@@H](O)[C@H](O[C@H]3OC(CN)=CC[C@H]3N)[C@@H](N)C[C@H]2N)OC[C@]1(C)O [sisomicin] | appearance of ZOI in all conditions | 
NC1C(OP(=O)(O)OP(=O)(O)OCC2OC(n3ccc(=O)[nH]c3=O)C(O)C2O)OC(CO)C(O)C1O (centres unmarked) [UDP-GlcNH2] |  | acetylation by KasF (KasF): not subject to acetylation of KasF; also recorded: could not observe the formation of UDP-GlcNAc; ∆G (KasQ): NBD; ∆H (KasQ): NBD; ∆S (KasQ): NBD; Kd (KasQ; 25 °C, 50 mM HEPES pH 8.0, 100 mM NaCl): Neither UDP-GlcNH2 that was enzymatically synthesized using the published procedure [38] nor AMP, ADP, ATP, GMP, GDP, or GTP shows detectable binding affinity and NBD
NCCC[C@H](N)CC(=O)N[C@@H]1[C@H](O)[C@@H](OC(N)=O)[C@@H](CO)O[C@H]1NC1=N[C@@H]2C(=O)NC[C@@H](O)[C@H]2N1 [streptothricin-F] | appearance of ZOI in all conditions | 
CNC(C)C1CCC(N)C(OC2C(N)CC(N)C(OC3OCC(C)(O)C(NC)C3O)C2O)O1 (centres unmarked) [gentamicin] | appearance of ZOI in all conditions | 
NCC[C@H](O)C(=O)N[C@@H]1C[C@H](N)[C@@H](O[C@H]2O[C@H](CN)[C@@H](O)[C@H](O)[C@H]2O)[C@H](O)[C@H]1O[C@H]1O[C@H](CO)[C@@H](O)[C@H](N)[C@H]1O [amikacin] | appearance of ZOI in all conditions | 
NC[C@H]1O[C@H](O[C@H]2[C@H](O)[C@@H](O[C@H]3O[C@H](CO)[C@@H](O)[C@H](N)[C@H]3O)[C@H](N)C[C@@H]2N)[C@H](N)C[C@@H]1O [tobramycin] | appearance of ZOI in all conditions | 
